From US6362181B1, “Isoquinolones” (Warner-Lambert Company, priority 1996, dated 2002)
Values after ≈ are worked out from the molar mass of the structure shown. Like-named read-outs stand apart in the source and are kept apart here.

How the values were obtained:
[1] = target: T1, E. coli topoisomerase IV (Escherichia coli, UniProt P0AFI2+P20083); test: Topoisomerase IV k-DNA decatenation assay; format: biochemical
T1 construct: made in house; host or cells: E. coli overexpressing strains
Experimental: Topoisomerase IV was purified from E. coli overexpressing strains and the compounds were assayed according to literature conditions (Journal of Biological Chemistry, 1993;268(32):24481). The k-DNA decatenation assay was used. Briefly, reactions were performed in buffer R (40 mM Tris-HCl (pH 7.5), 6 mM MgCl2, 10 mM DTT, 100 mM potassium glutamate, 40 μM ATP, 50 μg/mL bovine serum albumin, 10 mM NaCl). 0.2 μg of kinetoplast DNA (k-DNA; TopoGen, Columbus, Ohio) was incubated with 5 ng of E. coli topoisomerase IV in the presence or absence of test compounds for 10 minutes at 37° C. Subsequently, one-tenth volume of 10×gel loading buffer (0.3% bromophenol blue, 16% Ficoll, 10 mM Na2HPO4) was added, and samples were loaded onto horizontal 0.8% agarose gels prepared with TBE buffer and containing 0.05 μg/mL of ethidium bromide. Electrophoresis was at 70 V for 2 to 4 hours. Gels were then examined by exposure to UV light. The concentration of drug inhibiting 50% of the decantenating activity of Topoisomerase IV is given as an IC50 and recorded in Table 2.

[2] = tested on: B. subtilis RB1; test: Antibacterial assay, standard microtitration, MIC; format: cell-based; conditions: Gram positive; for MIC: Bacillus subtilis, read-out: Minimum Inhibitory Concentrations, B. subtilis RB1
Experimental: (§1) The compounds of the present invention were tested against an assortment of gram negative and gram positive organisms using standard microtitration techniques (Cohen, et al., Antimicrob. Agents Chemother., 1985;28:766; Heifetz, et al. Antimicrob. Agents Chemother., 1974;6:124).

[3] = tested on: E. coli MC4100; test: Antibacterial assay, standard microtitration, MIC; format: cell-based; conditions: Gram negative; for MIC: Escherichia coli, read-out: Minimum Inhibitory Concentrations, E. coli MC4100
Experimental: as §1

[4] = tested on: S. pyogenes C203; test: Antibacterial assay, standard microtitration, MIC; format: cell-based; conditions: Gram positive; for MIC: Streptococcus pyogenes, read-out: Minimum Inhibitory Concentrations, S. pyogenes C203
Experimental: as §1

[5] = tested on: S. aureus 29213; test: Antibacterial assay, standard microtitration, MIC; format: cell-based; conditions: Gram positive; for MIC: Staphylococcus aureus, read-out: Minimum Inhibitory Concentrations, S. aureus 29213
Experimental: as §1

[6] = tested on: E. coli To1C; test: Antibacterial assay, standard microtitration, MIC; format: cell-based; conditions: for Minimum Inhibitory Concentrations, E. coli To1C: Gram negative; for MIC: Escherichia coli, TO1C, read-out: Minimum Inhibitory Concentrations, E. coli To1C
Experimental: as §1

[7] = tested on: E. coli B90; test: Antibacterial assay, standard microtitration, MIC; format: cell-based; conditions: Gram negative; for MIC: Escherichia coli, read-out: Minimum Inhibitory Concentrations, E. coli B90
Experimental: as §1

[8] = target: T2, E. coli gyrase (Escherichia coli, UniProt P0AES4+P0AES6); test: DNA gyrase supercoiling inhibition assay; format: biochemical
T2 construct: purchased Lucent, Ltd., Leicester, UK
T2 sequence (P0AES4 whole entry, one chain of several): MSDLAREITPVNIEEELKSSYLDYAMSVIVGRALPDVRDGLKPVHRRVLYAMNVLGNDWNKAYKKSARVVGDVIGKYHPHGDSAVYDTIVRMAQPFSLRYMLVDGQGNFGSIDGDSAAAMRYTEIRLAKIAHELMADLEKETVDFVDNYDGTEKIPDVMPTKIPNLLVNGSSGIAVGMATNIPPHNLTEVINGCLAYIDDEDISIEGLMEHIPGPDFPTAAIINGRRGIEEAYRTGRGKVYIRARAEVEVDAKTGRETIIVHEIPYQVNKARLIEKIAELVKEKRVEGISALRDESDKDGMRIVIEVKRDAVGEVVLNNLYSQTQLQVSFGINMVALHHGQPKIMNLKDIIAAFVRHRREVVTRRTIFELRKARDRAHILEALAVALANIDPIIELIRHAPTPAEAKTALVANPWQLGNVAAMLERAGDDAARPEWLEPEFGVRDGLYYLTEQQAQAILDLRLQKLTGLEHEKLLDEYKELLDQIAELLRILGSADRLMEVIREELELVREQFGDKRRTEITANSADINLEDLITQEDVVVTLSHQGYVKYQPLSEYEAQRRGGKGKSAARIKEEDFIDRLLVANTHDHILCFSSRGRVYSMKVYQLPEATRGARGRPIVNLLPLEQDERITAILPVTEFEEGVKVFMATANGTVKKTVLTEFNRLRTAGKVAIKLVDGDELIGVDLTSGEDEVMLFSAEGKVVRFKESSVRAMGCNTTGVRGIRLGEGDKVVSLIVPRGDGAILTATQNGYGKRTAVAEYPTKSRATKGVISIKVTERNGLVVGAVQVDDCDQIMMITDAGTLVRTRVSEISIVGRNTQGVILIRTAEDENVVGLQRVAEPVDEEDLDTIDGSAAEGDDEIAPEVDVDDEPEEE
Experimental: The effects of test agents on the activity of DNA gyrase was determined by the supercoiling inhibition assay, following reaction conditions recommended by the enzyme supplier (Lucent, Ltd., Leicester, UK), as follows. Reactions were performed in buffer G (35 mM Tris-HCL (pH 7.5), 24 mM KCl, 4 mM MgCl2, 2 mM DTT, 1.8 mM spermidine, 1 mM ATP, 0.1 mg/mL bovine serum albumin). 0.25 μg of relaxed plasmid pBR322 (Lucent, Ltd., Leicester, UK) was reacted with 1 U E. coli gyrase (Lucent, Ltd., Leicester, UK), in the absence or presence of drugs, for 30 minutes at 37° C. Reactions were stopped by the addition of SDS and proteinase K to respective final concentrations of 1% and 0.5 mg/mL. After an additional 30 minutes at 37° C., one-tenth volume of 10×loading buffer (0.3% bromophenol blue, 16% Ficoll, 10 mM Na2HPO4) was added, and reactions were loaded onto agarose gels and electrophoresed as described above for intercalation assays. The concentration of drug inhibiting 50% of the supercoiling activity of DNA gyrase is given as an IC50 and recorded in Table 2.

[9] = Mammalian cell cytotoxicity, colony formation; format: cell-based; conditions: Chinese hamster
Experimental: Mammalian Cell Cytotoxicity
The cells were grown overnight and treated with drug for 3 hours at 37° C., at which time the compound containing media was replaced with fresh media. The cells were then incubated for 5 days and examined for colony formation.

[10] = target: relaxed plasmid pBR322; test: DNA intercalation/binding assay; conditions: pBR322 with calf thymus topoisomerase I, 30 minutes at 37° C.; read-out: Drug Concentration causing 50% Intercalation of DNA
Experimental: Compounds of the present invention were evaluated for their ability to intercalate/bind to DNA, using the procedure described in Nucleic Acids Research, 1987;15(15):6713. Specifically, 0.2 μg of relaxed plasmid pBR322 (Lucent, Ltd., Leicester, UK) was treated with 2 U of calf thymus topoisomerase I (Gibco/BRL, Gaithersburg, Md.) in buffer I (10 mM Tris-HCl (Ph 7.5), 50 mM KCl, 5 mM MgCl2, 1 mM Na2EDTA, 15 μg/mL bovine serum albumin) in the presence or absence of test compounds. Reaction were incubated for 30 minutes at 37° C.; volumes were typically 30 μL. Reactions were terminated by the addition of sodium dodecylsulfate (SDS) to 1% and proteinase K to 0.5 mg/mL final concentrations. After an additional 30 minutes at 37° C., one-tenth volume of 10×concentrated loading buffer (0.3% bromophenol blue, 16% Ficoll, 10 mM Na2HPO4) was added, and samples were loaded onto horizontal 0.8% agarose gels prepared in TAE buffer. Electrophoresis was at 22 V for 14 hours. Gels were then stained by soaking for 1.5 hours in deionized water containing 0.2 μg/mL of ethidium bromide, followed by destaining in deionized water for an additional 1.5 hours. Gels were examined and photographed following exposure to UV light. The concentration of the drug which induced a 50% change in the DNA by intercalation is represented by an intercalation IC50 and is recorded in Table 4.

[11] = k-DNA decatenation, 10 minutes at 37° C., read-out: Top IV IC50
[12] = supercoiling of relaxed pBR322, 30 minutes at 37° C., read-out: DNA Gyrase IC50
[13] = Chinese hamster cells, drug for 3 hours at 37° C., colony formation after 5 days, read-out: 50% Cytotoxic Conc. in CHO cells

T1 sequence (P0AFI2 whole entry): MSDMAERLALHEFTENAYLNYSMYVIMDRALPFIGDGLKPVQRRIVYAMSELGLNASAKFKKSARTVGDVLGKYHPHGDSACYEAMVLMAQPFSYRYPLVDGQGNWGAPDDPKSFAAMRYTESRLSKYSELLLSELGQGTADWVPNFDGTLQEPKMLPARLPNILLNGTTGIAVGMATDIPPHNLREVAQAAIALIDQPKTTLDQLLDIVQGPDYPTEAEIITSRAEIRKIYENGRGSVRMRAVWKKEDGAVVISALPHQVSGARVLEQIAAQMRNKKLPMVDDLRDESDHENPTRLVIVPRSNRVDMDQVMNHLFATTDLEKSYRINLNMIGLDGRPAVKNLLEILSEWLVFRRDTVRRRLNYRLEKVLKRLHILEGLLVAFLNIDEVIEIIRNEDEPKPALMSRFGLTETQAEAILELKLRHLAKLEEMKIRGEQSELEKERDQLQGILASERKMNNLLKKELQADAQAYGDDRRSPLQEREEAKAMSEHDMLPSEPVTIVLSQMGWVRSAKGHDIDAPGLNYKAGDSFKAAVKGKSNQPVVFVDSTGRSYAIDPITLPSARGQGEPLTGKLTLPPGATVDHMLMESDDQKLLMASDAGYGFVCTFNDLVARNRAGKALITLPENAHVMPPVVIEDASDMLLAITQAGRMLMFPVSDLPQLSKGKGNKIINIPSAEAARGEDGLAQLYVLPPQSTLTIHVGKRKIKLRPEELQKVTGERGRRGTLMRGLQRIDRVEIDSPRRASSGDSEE
T1 sequence (P20083 whole entry): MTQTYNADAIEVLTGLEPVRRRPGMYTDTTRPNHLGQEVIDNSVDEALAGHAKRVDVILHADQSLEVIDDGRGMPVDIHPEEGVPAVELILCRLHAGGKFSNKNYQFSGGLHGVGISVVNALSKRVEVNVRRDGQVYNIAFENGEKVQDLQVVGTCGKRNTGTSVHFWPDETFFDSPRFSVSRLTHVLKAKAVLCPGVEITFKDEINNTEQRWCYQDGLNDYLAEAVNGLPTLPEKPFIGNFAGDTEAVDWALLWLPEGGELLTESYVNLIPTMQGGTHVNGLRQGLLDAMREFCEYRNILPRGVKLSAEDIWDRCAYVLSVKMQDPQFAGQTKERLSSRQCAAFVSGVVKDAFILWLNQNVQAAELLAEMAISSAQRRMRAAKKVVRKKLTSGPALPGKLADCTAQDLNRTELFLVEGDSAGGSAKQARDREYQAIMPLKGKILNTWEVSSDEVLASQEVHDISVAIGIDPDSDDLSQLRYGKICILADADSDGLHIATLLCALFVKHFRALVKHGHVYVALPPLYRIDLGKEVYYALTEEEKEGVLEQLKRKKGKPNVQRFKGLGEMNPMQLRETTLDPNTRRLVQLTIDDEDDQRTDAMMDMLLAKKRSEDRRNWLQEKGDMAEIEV

Row | Compound | IC50 [8, 12] [µM] | MIC [2] [µg/mL] | MIC [3] [µg/mL] | MIC [4] [µg/mL] | MIC [5] [µg/mL] | MIC [7] [µg/mL] | MIC [6] [µg/mL] | IC50 [10] [µM] | other results
1 | 6-Hydroximino-2,5-dihydroxy-methyl-benzo[de]isoquinoline-1,3-dione [Example 120] | 30 | – | – | – | – | – | – | – | IC50 [1, 11]: 25 µM; Minimum Inhibitory Concentrations, B. subtilis RB1 [2]: >64 µg/mL; Minimum Inhibitory Concentrations, E. coli MC4100 [3]: >64 µg/mL; Minimum Inhibitory Concentrations, S. pyogenes C203 [4]: 64 µg/mL; Minimum Inhibitory Concentrations, S. aureus 29213 [5]: 16 µg/mL; Minimum Inhibitory Concentrations, E. coli To1C [6]: 1.0 µg/mL; Minimum Inhibitory Concentrations, E. coli B90 [7]: 2.0 µg/mL
2 | O=C1c2cccc3c(Br)ccc(c23)C(=O)N1O [Example 4, 6-Bromo-2-hydroxy-benzo[de]isoquinoline-1,3-dione] | – | 8 (≈ 27.4 µM) | > 64 | > 64 | 16 (≈ 54.8 µM) | 8 (≈ 27.4 µM) | – | – | IC50 at 3 h [9, 13]: > 250 µM
3 | CSc1ccc2c3c(cccc13)C(=O)N(O)C2=O [Example 16, 2-Hydroxy-6-methylthio-benzo[de]isoquinoline-1,3-dione] | – | 2 (≈ 7.71 µM) | > 64 | 64 (≈ 247 µM) | 8 (≈ 30.9 µM) | 1 (≈ 3.86 µM) | 1 (≈ 3.86 µM) | > 100 | IC50 at 3 h [9, 13]: > 250 µM
4 | Nc1c(Br)cc2c3c(cccc13)C(=O)N(O)C2=O [Example 26, 6-Amino-5-bromo-2-hydroxy-benzo[de]isoquinoline-1,3-dione] | 7 | 0.5 (≈ 1.63 µM) | 0.5 (≈ 1.63 µM) | > 64 | 2 (≈ 6.51 µM) | 0.25 (≈ 0.814 µM) | – | > 100 | IC50 [1, 11]: 10 µM
5 | COc1cc2c3c(cccc3c1Br)C(=O)N(O)C2=O [Example 32, 6-Bromo-2-hydroxy-5-methoxy-benzo[de]isoquinoline-1,3-dione] | – | 4 (≈ 12.4 µM) | > 64 | > 64 | 8 (≈ 24.8 µM) | 8 (≈ 24.8 µM) | 4 (≈ 12.4 µM) | > 100 | IC50 at 3 h [9, 13]: > 250 µM
6 | O=C1c2ccc(N3CCCC3)c3cc(Br)cc(c23)C(=O)N1O [Example 59, 5-Bromo-2-hydroxy-7-(pyrrolidin-1-yl)-benzo[de]isoquinoline-1,3-dione] | 2.6 | 0.5 (≈ 1.38 µM) | 2 (≈ 5.54 µM) | > 64 | 1 (≈ 2.77 µM) | 0.06 (≈ 0.166 µM) | 0.06 (≈ 0.166 µM) | > 100 | –
7 | NC1CCN(c2ccc3c4c(cccc24)C(=O)N(O)C3=O)C1 (stereo not drawn) [Example 62, 6-(3-Amino-pyrrolidin-1-yl)-2-hydroy-benzo[de]isoquinoline-1,3-dione] | 18 | 64 (≈ 215 µM) | > 64 | 4 (≈ 13.5 µM) | > 64 | 32 (≈ 108 µM) | 8 (≈ 26.9 µM) | – | IC50 at 3 h [9, 13]: 177 µM
8 | O=C1c2cccc3c(N4CCOCC4)c([N+](=O)[O-])cc(c23)C(=O)N1O [Example 81] | – | 8 (≈ 23.3 µM) | > 64 | > 64 | 32 (≈ 93.2 µM) | 8 (≈ 23.3 µM) | 8 (≈ 23.3 µM) | 94 | melting point: 272 to 274 °C; IC50 [8]: 19 µM
9 | NCC1CCN(c2c(Cl)cc3c4c(cccc24)C(=O)N(O)C3=O)C1 (stereo not drawn) [Example 85] | – | 1 (≈ 2.89 µM) | 1 (≈ 2.89 µM) | 4 (≈ 11.6 µM) | 4 (≈ 11.6 µM) | 0.5 (≈ 1.45 µM) | 0.25 (≈ 0.723 µM) | – | IC50 [8]: 2.1 µM
10 | CC1(CN)CCN(c2c(Cl)cc3c4c(cccc24)C(=O)N(O)C3=O)C1 (stereo not drawn) [Example 89] | – | 1 (≈ 2.78 µM) | 4 (≈ 11.1 µM) | 2 (≈ 5.56 µM) | 1 (≈ 2.78 µM) | 1 (≈ 2.78 µM) | 0.5 (≈ 1.39 µM) | – | IC50 [8]: 5.5 µM
11 | CN1CCN(c2c(Cl)cc3c4c(cccc24)C(=O)N(O)C3=O)CC1 [Example 98] | – | 8 (≈ 23.1 µM) | 32 (≈ 92.5 µM) | 8 (≈ 23.1 µM) | 16 (≈ 46.3 µM) | 4 (≈ 11.6 µM) | 4 (≈ 11.6 µM) | 19 | IC50 [1]: 3 µM; IC50 [8]: 15.8 µM
12 | O=C1c2cccc3c(Cl)c(Cl)cc(c23)C(=O)N1O [Example 103, 5,6-Dichloro-2-hydroxy-benzo[de]isoquinoline-1,3-dione] | 4.9 | 1 (≈ 3.55 µM) | 16 (≈ 56.7 µM) | > 64 | 16 (≈ 56.7 µM) | 0.5 (≈ 1.77 µM) | 0.5 (≈ 1.77 µM) | 26 | IC50 [1, 11]: 19 µM
13 | NC1CCN(c2c(Cl)cc3c4c(cc([N+](=O)[O-])cc24)C(=O)N(O)C3=O)C1.O=C(O)C(F)(F)F (stereo not drawn) [Example 115] | 0.7 | – | – | – | – | – | – | – | IC50 ([1]; read-out: Top IV IC50): 9 µM; Minimum Inhibitory Concentrations, B. subtilis RB1 [2]: 2.0 µg/mL; Minimum Inhibitory Concentrations, E. coli MC4100 [3]: 8.0 µg/mL; Minimum Inhibitory Concentrations, S. pyogenes C203 [4]: 4.0 µg/mL; Minimum Inhibitory Concentrations, S. aureus 29213 [5]: >64 µg/mL; Minimum Inhibitory Concentrations, E. coli To1C [6]: 0.5 µg/mL; Minimum Inhibitory Concentrations, E. coli B90 [7]: 0.5 µg/mL
14 | NC1CCN(c2ccc3c4c(cc(Cl)c(Cl)c24)C(=O)N(O)C3=O)C1.O=C(O)C(F)(F)F (stereo not drawn) [Example 117] | 10 | – | – | – | – | – | – | – | IC50 ([1]; read-out: Top IV IC50): 4 µM; Minimum Inhibitory Concentrations, B. subtilis RB1 [2]: 2.0 µg/mL; Minimum Inhibitory Concentrations, E. coli MC4100 [3]: 2.0 µg/mL; Minimum Inhibitory Concentrations, S. pyogenes C203 [4]: 8.0 µg/mL; Minimum Inhibitory Concentrations, S. aureus 29213 [5]: 8.0 µg/mL; Minimum Inhibitory Concentrations, E. coli To1C [6]: 0.25 µg/mL; Minimum Inhibitory Concentrations, E. coli B90 [7]: 0.5 µg/mL
15 | O=C1c2cccc3c4c(cc(c23)C(=O)N1O)OCO4 [Example 122, 2-Hydroxy-5,6-methylenedioxy-benzo[de]isoquinoline-1,3-dione] | 19 | 2 (≈ 7.78 µM) | 2 (≈ 7.78 µM) | > 64 | 8 (≈ 31.1 µM) | 0.5 (≈ 1.94 µM) | 0.5 (≈ 1.94 µM) | > 100 | –
16 | CN(C)CCN1C(=O)c2cc([N+](=O)[O-])cc3cc([N+](=O)[O-])cc(c23)C1=O [Ref #1, 5,8-dinitro-2-(2-dimethylaminoethyl)-benzo[de]isoquinoline-1,3-dione, reference compound] | – | 2 (≈ 5.58 µM) | 8 (≈ 22.3 µM) | 2 (≈ 5.58 µM) | 4 (≈ 11.2 µM) | 2 (≈ 5.58 µM) | – | < 10 | IC50 at 3 h [9]: < 8 µM
